#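 Cultured in 96-well plates, cells were exposed to test compound for 48 hours across five concentrations. GI50 marks 50% less growth.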 The source made the active and inactive calls. No stated cut-off is given here; in the data, active = GI50 up to about 1.1 µM and inactive = higher. Where a SMILES comes first, the peptide text is derived from it. The star is where a group is joined. Boc = CC(C)(C)OC(=O)*; Bn = c1ccc(C*)cc1
# Assays:
# Assay in all cases: growth of human tumour cells (NCI), 48 h
# MOLT-4 = system: MOLT-4
# UO-31 = system: UO-31
# HCT-15 = system: HCT-15
# CAKI-1 = system: CAKI-1
# MDA-N = system: MDA-N
# HL-60 = system: HL-60
# NCI/ADR-RES = system: NCI/ADR-RES
# OVCAR-4 = system: OVCAR-4
# SF-295 = system: SF-295
# LOX IMVI = system: LOX IMVI
# RXF 393 = system: RXF 393
# HCT-116 = system: HCT-116
# TK-10 = system: TK-10
# NCI-H522 = system: NCI-H522
# HT-29 = system: HT-29
# ACHN = system: ACHN
# UACC-257 = system: UACC-257
# SN12C = system: SN12C
# CCRF-CEM = system: CCRF-CEM
Structure (SMILES),GI50 (MOLT-4),GI50 (UO-31),GI50 (HCT-15) [µM],GI50 (CAKI-1),GI50 (MDA-N),GI50 (HL-60),GI50 (NCI/ADR-RES),GI50 (OVCAR-4),GI50 (SF-295),GI50 (LOX IMVI),GI50 (RXF 393),GI50 (HCT-116),GI50 (TK-10),GI50 (NCI-H522),GI50 (HT-29),GI50 (ACHN),GI50 (UACC-257),GI50 (SN12C),GI50 (CCRF-CEM)
N/C(=N\c1cccc(Cl)c1)c1ccccc1N,> 100 µM (inactive),> 100 µM (inactive),> 100,> 100 µM (inactive),> 100 µM (inactive),> 100 µM (inactive),> 100 µM (inactive),> 100 µM (inactive),> 100 µM (inactive),> 100 µM (inactive),> 100 µM (inactive),> 100 µM (inactive),> 100 µM (inactive),> 100 µM (inactive),> 100 µM (inactive),> 100 µM (inactive),> 100 µM (inactive),,
CCn1cc(C(=O)O)c(=O)c2cc(F)c(N3CCN(CN4C(=O)/C(=N\NC(=O)c5ccncc5)c5cc(Cl)ccc54)CC3)cc21,0.048 µM (active),4.83 µM (inactive),31.1,23.7 µM (inactive),50.6 µM (inactive),15.8 µM (inactive),79.6 µM (inactive),36.9 µM (inactive),> 100 µM (inactive),34.3 µM (inactive),19.6 µM (inactive),58.6 µM (inactive),24.7 µM (inactive),21.8 µM (inactive),32.7 µM (inactive),37.3 µM (inactive),37.6 µM (inactive),69.5 µM (inactive),
C[C@]12CC[C@H]3[C@@H](CC[C@]4(O)C[C@@H](O)CC[C@]34/C=N/O)[C@@]1(O)CC[C@@H]2C1=COC(=O)C1,0.0272 µM (active),0.112 µM (active),0.158,0.0363 µM (active),0.191 µM (active),0.131 µM (active),0.141 µM (active),0.0608 µM (active),0.0545 µM (active),0.136 µM (active),0.0318 µM (active),0.0403 µM (active),0.0845 µM (active),0.0323 µM (active),0.146 µM (active),0.0404 µM (active),0.299 µM (active),0.251 µM (active),
CCOC(=O)OC1C(Br)C2CCC1(C)C2(C)C (stereo not given),4.6 µM (inactive),12 µM (inactive),13.7,,15 µM (inactive),6.21 µM (inactive),15.5 µM (inactive),11.7 µM (inactive),15.3 µM (inactive),6.59 µM (inactive),10.9 µM (inactive),6.44 µM (inactive),14.2 µM (inactive),15.2 µM (inactive),6.05 µM (inactive),15.3 µM (inactive),15.9 µM (inactive),14.4 µM (inactive),4.88 µM (inactive)
COc1cccc(-c2nc(-c3cnccn3)n(COCCO)n2)c1,> 100 µM (inactive),> 100 µM (inactive),> 100,,> 100 µM (inactive),> 100 µM (inactive),> 100 µM (inactive),> 100 µM (inactive),> 100 µM (inactive),> 100 µM (inactive),> 100 µM (inactive),> 100 µM (inactive),> 100 µM (inactive),> 100 µM (inactive),> 100 µM (inactive),,> 100 µM (inactive),> 100 µM (inactive),> 100 µM (inactive)
NC(=O)/C=C/NC(=O)/C=N\O,> 100 µM (inactive),> 100 µM (inactive),> 100,> 100 µM (inactive),> 100 µM (inactive),> 100 µM (inactive),> 100 µM (inactive),> 100 µM (inactive),> 100 µM (inactive),> 100 µM (inactive),> 100 µM (inactive),> 100 µM (inactive),,> 100 µM (inactive),> 100 µM (inactive),> 100 µM (inactive),> 100 µM (inactive),> 100 µM (inactive),> 100 µM (inactive)
COC(=O)C1=C(C(=O)OC)C2CCC1CC2=O (stereo not given),45.5 µM (inactive),55.1 µM (inactive),83.8,> 100 µM (inactive),> 100 µM (inactive),,> 100 µM (inactive),> 100 µM (inactive),> 100 µM (inactive),> 100 µM (inactive),> 100 µM (inactive),> 100 µM (inactive),> 100 µM (inactive),70.6 µM (inactive),> 100 µM (inactive),> 100 µM (inactive),> 100 µM (inactive),> 100 µM (inactive),31.3 µM (inactive)
COC(=O)C(CC(C)C)NC(=O)C(C)NC(=O)C(Cc1ccc(OCc2ccccc2)cc1)NC(=O)C(COCc1ccccc1)NC(=O)OC(C)(C)C (stereo not given) (Boc-S(Bn)Y(Bn)AL-OMe; configuration not given here),96.2 µM (inactive),> 100 µM (inactive),,> 100 µM (inactive),> 100 µM (inactive),41.2 µM (inactive),> 100 µM (inactive),4.3 µM (inactive),> 100 µM (inactive),> 100 µM (inactive),> 100 µM (inactive),> 100 µM (inactive),> 100 µM (inactive),> 100 µM (inactive),> 100 µM (inactive),> 100 µM (inactive),,> 100 µM (inactive),
